Assay [1] relates to NRK-49F cells. As to the kind of experiment: Confocal fluorescence imaging of FITC-labeled collagen fibers in NRK-49F cultures (FITC content). Type of assay: cell-based, rat. Particulars: after TGF-β1 stimulation vs control; FIG. 3 and FIG. 4 (FITC content). The procedure:
(§1) To clearly distinguish the cells from surrounding proteins, the method employs multiple fluorescent proteins for labeling. In this embodiment, rat renal fibroblasts (NRK-49F cells) were transfected to express Lifeact-RFP and cultured on collagen gels conjugated with FITC-labeled type-I collagen. The cultures were divided into a group treated with TGF-β1 and a control group without TGF-β1. TGF-β1 was added to mimic the activation of fibroblasts into myofibroblasts in fibrotic conditions such as kidney fibrosis and keloid, enabling subsequent analysis of cell contraction and collagen fiber interactions.
(§2) In this embodiment, the coaxial microscope system combines a laser-scanning confocal microscope (FV3000, Olympus) with sharp tip probe-equipped atomic-force microscope (BioScope Resolve, Bruker) […]. Before measurement, the spring constant, deflection sensitivity, and position of the probe were calibrated using No-Touch mode in AFM and vision in confocal microscopy.
FIG. 2 schematically illustrates a simplified experimental workflow for selecting the regions of interest and examining the sample using a coaxial microscope system of the laser scanning confocal microscope and the atomic force microscope. […] Finally, the fluorescence and morphological images are merged, and the mechanical properties of the cells and collagen fibers are analyzed using software

Assay [2] relates to NRK-49F cells. As to the kind of experiment: Atomic force microscope measurement of stiffness and morphology of NRK-49F cells and collagen fibers in the in vitro fibrosis model (coaxial AFM/confocal system). The format is cell-based, rat. The procedure: as §1, §2
Additionally, prior to measurement, a hydrophobic material is coated onto the sharp tip probe of the atomic force microscope. This prevents the probe from adhering to collagen fibers during scanning of the sample, thereby maintaining measurement accuracy.
After calibration, the regions of interest can be selected, captured, and measured using the coaxial microscope system. The elastic moduli are calculated from force-distance curves using a modified Sneddon model implemented in Bruker data-analysis software. Collagen fibers and cells are further analyzed for morphology and rigidity using NanoScope Analysis software (v1.9, Bruker).
FIG. 2 schematically illustrates a simplified experimental workflow for selecting the regions of interest and examining the sample using a coaxial microscope system of the laser scanning confocal microscope and the atomic force microscope. FITC-labeled collagen gels are prepared and seeded with Lifeact-RFP-transfected NRK-49F cells. After 24 hours of culture, drugs are added and media are refreshed. The prepared sample is mounted on the coaxial microscope system, the scan area is marked, and the sample is adjusted to the pre-marked area. Subsequently, images are acquired using the coaxial confocal microscope and atomic force microscope. Finally, the fluorescence and morphological images are merged, and the mechanical properties of the cells and collagen fibers are analyzed using software

[3] abbreviates: after TGF-β1 treatment vs control, AFM images, figure not shown.

1 substance from US20260287509A1, “METHOD FOR MEASURING CELLULAR MECHANICS IN AN IN VITRO FIBROSIS MODEL” (National Cheng Kung University, priority 2023, published 2026) can be followed below.

In the case of transforming growth factor β1 [TGF-β1], the “density of collagen fibers” value with NRK-49F cells [1] is reported as “markedly increased”. Besides, the “increase in stiffness of collagen fibers” value with NRK-49F cells [2] (TGF-β1-treated vs control without TGF-β1, FITC-labeled type-I collagen gel seeded with Lifeact-RFP NRK-49F cells, AFM elastic modulus, FIG. 6) is given as “approximately 6.5 fold”. Further, in the assay with NRK-49F cells [2] (TGF-β1-treated vs control without TGF-β1, Lifeact-RFP NRK-49F cells on collagen gel, AFM elastic modulus, FIG. 6), the “increase in stiffness of NRK-49F cells” value is listed as roughly 6.7 fold. For the same substance, in the assay on NRK-49F cells [2] (setting [3]), the “angle between collagen fibers and NRK-49F cells (A)” value was “no significant difference”; the “diameter of collagen fibers (D1)” value was “no significant difference”.
